Laboratory results reported in patent publication US10508085B2, “Compounds and methods for IDO and TDO modulation, and indications therefor” (Plexxikon Inc., priority 2016, dated 2019).
Where two headings read alike, the source gives them in different places.

Assays:
[1] = biological target: T1, Human Indoleamine 2,3-dioxygenase (IDO) (Homo sapiens, UniProt P14902); test: Human IDO enzymatic assay (kynurenine level); type: biochemical
T1 construct: His tag (N); made in house; host or cells: E. coli
Summary of the method: (§1)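 N-terminally His-tagged enzymes expressed in E. coli were run in 50 mM sodium phosphate pH 6.5 with 10 mM ascorbate, catalase and Tween 20. IDO: 6 nM enzyme, 10 μM L-Trp, 5 μM methylene blue, 20 min RT. TDO: 1 nM enzyme, 350 μM L-Trp, 0.4 μM methylene blue, 70 min RT.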

[2] = biological target: T2, Human Tryptophan 2,3-dioxygenase (TDO) (Homo sapiens, UniProt P48775); test: Human TDO enzymatic assay (kynurenine level); type: biochemical
T2 construct: His tag (N); made in house; host or cells: E. coli
Summary of the method: as §1

[3] = biological target: T3, human IDO (IDO1-expressing HEK293 cells) (Homo sapiens, UniProt P14902); test: Cell based kynurenine assay, IDO1-expressing HEK293 cell clones; conditions: IDO1-expressing HEK293 cells, 24 hours incubation; geometric mean; read-out: HEK293 IDO1 Kynurenine GMean IC50 (μM) (Cellular Assay)
T3 construct: expressed in transfected cells
Description: (§2) Determine Inhibitor Activity Against IDO or TDO in Cell Based Kynurenine Assay
(§3) IDO1-expressing or TDO-expressing HEK293 cell clones are generated upon stable transfection of plasmids expressing human IDO or human TDO under the control of CMV promoter. Cells are selected in DMEM media supplemented with 10% fetal bovine serum and 1 mg/ml G418 at 37° C. in a humidified incubator supplied with 5% CO2. The assays are performed as follows.
(§4) Cells were seeded in a 96 well plate in 50 μL of culture media at a density of 2.5×10^4 per well. Serial dilutions of compounds (in total volume of 50 μL culture media) are added into cells. 4 wells containing 0.2% DMSO treated cells serve as high controls and 4 wells containing media only with 0.2% DMSO serve as low controls. After 24 hours of incubation, the supernatant was transferred to a 384 well reaction plate and the kynurenine level determined. The percentage inhibition at individual concentrations relative to high and low controls is calculated. The data is analyzed by using nonlinear regression to generate IC50 values.

[4] = biological target: T4, human TDO (TDO-expressing HEK293 cells) (Homo sapiens, UniProt P48775); test: Cell based kynurenine assay, TDO-expressing HEK293 cell clones; conditions: cellular assay, HEK293, 24 hours; comparative examples; read-out: hTDO
T4 construct: expressed in transfected cells
Description: as §2, §3, §4

[5] = 6 nM IDO, 10 μM L-Trp, geometric mean, read-out: IDO1 GMean: IC50 (μM) (Biochemical Assay)
[6] = 1 nM TDO, 350 μM L-Trp, geometric mean, read-out: TDO GMean: IC50 (μM) (Biochemical Assay)
[7] = biochemical assay, comparative examples, 4,6 versus 5,7 indazole, read-out: IDO1
[8] = biochemical assay, comparative examples, 4,6 versus 5,7 indazole, read-out: TDO

T2 sequence (P48775 whole entry): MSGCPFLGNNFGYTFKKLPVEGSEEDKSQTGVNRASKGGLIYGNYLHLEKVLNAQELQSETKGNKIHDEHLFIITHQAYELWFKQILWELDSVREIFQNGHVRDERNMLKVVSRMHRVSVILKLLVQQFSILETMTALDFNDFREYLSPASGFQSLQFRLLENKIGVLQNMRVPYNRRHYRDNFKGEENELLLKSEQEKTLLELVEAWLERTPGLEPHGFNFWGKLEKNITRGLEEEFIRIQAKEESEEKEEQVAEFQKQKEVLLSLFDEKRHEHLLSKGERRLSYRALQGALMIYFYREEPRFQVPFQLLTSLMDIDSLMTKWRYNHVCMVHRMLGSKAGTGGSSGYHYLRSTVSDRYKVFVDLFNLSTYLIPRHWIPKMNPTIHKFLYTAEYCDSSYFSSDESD
T4 sequence (P48775 whole entry): as above
T3 sequence (P14902 whole entry): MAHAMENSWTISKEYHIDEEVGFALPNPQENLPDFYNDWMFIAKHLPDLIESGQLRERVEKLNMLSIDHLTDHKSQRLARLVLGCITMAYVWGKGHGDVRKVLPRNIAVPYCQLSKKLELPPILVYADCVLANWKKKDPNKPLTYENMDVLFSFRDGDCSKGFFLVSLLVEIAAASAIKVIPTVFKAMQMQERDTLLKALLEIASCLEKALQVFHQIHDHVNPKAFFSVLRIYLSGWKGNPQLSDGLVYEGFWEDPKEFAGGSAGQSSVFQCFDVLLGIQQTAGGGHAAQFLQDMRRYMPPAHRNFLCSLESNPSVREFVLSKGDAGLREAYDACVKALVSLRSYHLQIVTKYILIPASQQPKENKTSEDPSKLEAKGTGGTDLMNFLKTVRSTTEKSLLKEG
T1 sequence (P14902 whole entry): as above

Row | SMILES | IC50 [1, 5] [µM] | IC50 [2, 6] [µM] | IC50 [3] [µM] | IC50 [1, 7] [µM] | IC50 [2, 8] [µM] | IC50 [4] [nM]
1 | CC(C)(C)OC(=O)N1CCC2(CC1)CC(O)(c1cc(Cl)cc3cn[nH]c13)C2 [Compound P-0019, tert-butyl 2-(5-chloro-1H-indazol-7-yl)-2-hydroxy-7-azaspiro[3.5]nonane-7-carboxylate] |  |  | > 10 |  |  | 
2 | CS(=O)(=O)N1CCC(O)(c2cc(Cl)cc3cn[nH]c23)CC1 [Compound P-0023, 4-(5-chloro-1H-indazol-7-yl)-1-(methylsulfonyl)piperidin-4-ol] |  |  | > 10 |  |  | 
3 | CS(=O)(=O)N1CC(O)(c2cc(Cl)cc3cn[nH]c23)C1 [Compound P-0024, 3-(5-chloro-1H-indazol-7-yl)-1-(methylsulfonyl)azetidin-3-ol] |  |  | > 10 |  |  | 
4 | O=S1(=O)CC2(CC(O)(c3cc(Cl)cc4cn[nH]c34)C2)C1 [Compound P-0056, 6-(5-chloro-1H-indazol-7-yl)-6-hydroxy-2-thiaspiro[3.3]heptane 2,2-dioxide] | 10 to 100 |  | > 10 |  |  | 
5 | CC(C)(C1CCN(C(=O)NCc2cnccn2)CC1)[C@H](O)c1cc(Cl)cc2cn[nH]c12 [Compound P-0680, (S)-4-(1-(5-chloro-1H-indazol-7-yl)-1-hydroxy-2-methylpropan-2-yl)-N-(pyrazin-2-ylmethyl)piperidine-1-carboxamide] | 0.0001 to 10 | 0.0001 to 10 |  |  |  | 
6 | CC(C)(C1CCN(C(=O)NCc2ccnnc2)CC1)[C@H](O)c1cc(Cl)cc2cn[nH]c12 [Compound P-0681, (S)-4-(1-(5-chloro-1H-indazol-7-yl)-1-hydroxy-2-methylpropan-2-yl)-N-(pyridazin-4-ylmethyl)piperidine-1-carboxamide] | 0.0001 to 10 | 0.0001 to 10 |  |  |  | 
7 | OC(c1cc(Cl)cc2[nH]ncc12)C1CCCCC1 (centres unmarked) [drawing 811] |  |  |  | 3.25 | 6.06 | 50
8 | COC12CCC(C(O)c3cc(Cl)cc4[nH]ncc34)(CC1)CC2 (centres unmarked) [drawing 813] |  |  |  | 6.6 | 0.16 | 170
9 | CC(C)(C1CCN(S(C)(=O)=O)CC1)C(O)c1cc(Cl)cc2[nH]ncc12 (centres unmarked) [drawing 815] |  |  |  | 0.7 | 0.1 | 10
10 | OC1(c2cc(Cl)cc3cn[nH]c23)CC2(CCC2)C1 [drawing 818] |  |  |  | 0.14 | 0.04 | 2940

Other lines, results leading:

Row | IC50 [1, 5] [µM] | IC50 [2, 6] [µM] | IC50 [3] [µM] | IC50 [1, 7] [µM] | IC50 [2, 8] [µM] | IC50 [4] [nM] | SMILES
11 | 0.0001 to 10 | 0.0001 to 10 | 0.0001 to 10 |  |  |  | Cc1ccc2cn[nH]c2c1C(O)C1(C)CCCCC1 (centres unmarked) [Compound P-0015, (6-methyl-1H-indazol-7-yl)(1-methylcyclohexyl)methanol]
12 | 0.0001 to 10 | 0.0001 to 10 | > 10 |  |  |  | OC(c1ccccc1)c1cccc2cncn12 (centres unmarked) [Compound P-0057, imidazo[1,5-a]pyridin-5-yl(phenyl)methanol]
13 | 0.0001 to 10 | 0.0001 to 10 |  |  |  |  | CC(C)(C1CCN(C(=O)NCC2(O)COC2)CC1)[C@H](O)c1cc(Cl)cc2cn[nH]c12 [Compound P-0667, (S)-4-(1-(5-chloro-1H-indazol-7-yl)-1-hydroxy-2-methylpropan-2-yl)-N-((3-hydroxyoxetan-3-yl)methyl)piperidine-1-carboxamide]
14 | 0.0001 to 10 | 0.0001 to 10 |  |  |  |  | C[C@H](CO)NC(=O)N1CCC(C(C)(C)[C@H](O)c2cc(Cl)cc3cn[nH]c23)CC1 [Compound P-0668, 4-((S)-1-(5-chloro-1H-indazol-7-yl)-1-hydroxy-2-methylpropan-2-yl)-N-((R)-1-hydroxypropan-2-yl)piperidine-1-carboxamide]
15 | 0.0001 to 10 | 0.0001 to 10 |  |  |  |  | C[C@@H](CO)NC(=O)N1CCC(C(C)(C)[C@H](O)c2cc(Cl)cc3cn[nH]c23)CC1 [Compound P-0669, 4-((S)-1-(5-chloro-1H-indazol-7-yl)-1-hydroxy-2-methylpropan-2-yl)-N-((S)-1-hydroxypropan-2-yl)piperidine-1-carboxamide]
16 | 0.0001 to 10 | 0.0001 to 10 |  |  |  |  | C[C@@H](O)CNC(=O)N1CCC(C(C)(C)[C@H](O)c2cc(Cl)cc3cn[nH]c23)CC1 [Compound P-0670, 4-((S)-1-(5-chloro-1H-indazol-7-yl)-1-hydroxy-2-methylpropan-2-yl)-N-((R)-2-hydroxypropyl) piperidine-1-carboxamide]
17 | 0.0001 to 10 | 0.0001 to 10 |  |  |  |  | C[C@H](O)CNC(=O)N1CCC(C(C)(C)[C@H](O)c2cc(Cl)cc3cn[nH]c23)CC1 [Compound P-0671, 4-((S)-1-(5-chloro-1H-indazol-7-yl)-1-hydroxy-2-methylpropan-2-yl)-N-((S)-2-hydroxypropyl) piperidine-1-carboxamide]
18 | 0.0001 to 10 | 0.0001 to 10 |  |  |  |  | CC(C)(C1CCN(C(=O)NC2(C#N)CC2)CC1)[C@H](O)c1cc(Cl)cc2cn[nH]c12 [Compound P-0672, (S)-4-(1-(5-chloro-1H-indazol-7-yl)-1-hydroxy-2-methylpropan-2-yl)-N-(1-cyanocyclopropyl) piperidine-l-carboxamide]
19 | 0.0001 to 10 | 0.0001 to 10 |  |  |  |  | CC(C)(C1CCN(C(=O)NCC(=O)O)CC1)[C@H](O)c1cc(Cl)cc2cn[nH]c12 [Compound P-0673, (S)-(4-(1-(5-chloro-1H-indazol-7-yl)-1-hydroxy-2-methylpropan-2-yl)piperidine-1-carbonyl)glycine]
20 | 0.0001 to 10 | 0.0001 to 10 |  |  |  |  | CC(C)(C1CCN(C(=O)NC2CCS(=O)(=O)CC2)CC1)[C@H](O)c1cc(Cl)cc2cn[nH]c12 [Compound P-0674, (S)-4-(1-(5-chloro-1H-indazol-7-yl)-1-hydroxy-2-methylpropan-2-yl)-N-(1,1-dioxidotetrahydro-2H-thiopyran-4-yl)piperidine-1-carboxamide]
21 | 0.0001 to 10 | 0.0001 to 10 |  |  |  |  | CC(C)(C1CCN(C(=O)NCC2(C#N)CC2)CC1)[C@H](O)c1cc(Cl)cc2cn[nH]c12 [Compound P-0675, (S)-4-(1-(5-chloro-1H-indazol-7-yl)-1-hydroxy-2-methylpropan-2-yl)-N-((1-cyanocyclopropyl)methyl)piperidine-1-carboxamide]
22 | 0.0001 to 10 | 0.0001 to 10 |  |  |  |  | CN1CCN(Cc2ccc(NC(=O)N3CCC(C(C)(C)[C@H](O)c4cc(Cl)cc5cn[nH]c45)CC3)cc2)CC1 [Compound P-0676, (S)-4-(1-(5-chloro-1H-indazol-7-yl)-1-hydroxy-2-methylpropan-2-yl)-N-(4-((4-methylpiperazin-1-yl)methyl)phenyl) piperidine-1-carboxamide]
23 | 0.0001 to 10 | 0.0001 to 10 |  |  |  |  | CC(C)(C1CCN(C(=O)NCCNS(C)(=O)=O)CC1)[C@H](O)c1cc(Cl)cc2cn[nH]c12 [Compound P-0677, (S)-4-(1-(5-chloro-1H-indazol-7-yl)-1-hydroxy-2-methylpropan-2-yl)-N-(2-(methylsulfonamido)ethyl)piperidine-1-carboxamide]
24 | 0.0001 to 10 | 0.0001 to 10 |  |  |  |  | CC(C)(C1CCN(C(=O)NCCN2CCCS2(=O)=O)CC1)[C@H](O)c1cc(Cl)cc2cn[nH]c12 [Compound P-0678, (S)-4-(1-(5-chloro-1H-indazol-7-yl)-1-hydroxy-2-methylpropan-2-yl)-N-(2-(1,1-dioxidoisothiazolidin-2-yl)ethyl)piperidine-1-carboxamide]
25 | 0.0001 to 10 | 0.0001 to 10 |  |  |  |  | CC(C)(C1CCN(C(=O)NCc2cccnc2)CC1)[C@H](O)c1cc(Cl)cc2cn[nH]c12 [Compound P-0679, (S)-4-(1-(5-chloro-1H-indazol-7-yl)-1-hydroxy-2-methylpropan-2-yl)-N-(pyridin-3-ylmethyl)piperidine-1-carboxamide]
